# From patent publication US11597951B2 (Lygos, Inc., priority 2018, dated 2023)
# Positions count from the first letter of the chain named. In names and notes the source's numbering stands.
# B1: FabD S92C/L93V/R117H: engineered E. coli FabD malonyl CoA:ACP transacylase with S92C/L93V/R117H (protein, UniProt P0AAI9 2-309, looked up, variant S92C L93V R117H)
# Malonyl CoA-acyl carrier …: TQFAFVFPGQGSQTVGMLADMAASYPIVEETFAEASAALGYDLWALTQQGPAEELNKTWQTQPALLTASVALYRVWQQQGGKAPAMMAGHCVGEYSALVCAGVIDFADAVRLVEMHGKFMQEAVPEGTGAMAAIIGLDDASIAKACEEAAEGQVVSPVNFNSPGQVVIAGHKEAVERAGAACKAAGAKRALPLPVSVPSHCALMKPAADKLAVELAKITFNAPTVPVVNNVDVKCETNGDAIRDALVRQLYNPVQWTKSVEYMAAQGVEHLYEVGPGKVLTGLTKRIVDTLTASALNEPSAMAAALEL
# B2: FabD L93S/R117G: engineered E. coli FabD malonyl CoA:ACP transacylase with L93S/R117G (protein, UniProt P0AAI9 2-309, looked up, variant L93S R117G)
# Malonyl CoA-acyl carrier …: B1 Malonyl CoA-acyl carrier … with C91S, V92S, H116G
# B3: FabD L93I/R117Y: engineered E. coli FabD malonyl CoA:ACP transacylase with L93I/R117Y (protein, UniProt P0AAI9 2-309, looked up, variant L93I R117Y)
# Malonyl CoA-acyl carrier …: B1 Malonyl CoA-acyl carrier … with C91S, V92I, H116Y
# B4: FabD L931/R117Y: engineered E. coli FabD malonyl CoA:ACP transacylase variant, printed L931/R117Y (protein, UniProt P0AAI9 2-309, looked up, variant L93I R117Y)
# Malonyl CoA-acyl carrier …: B1 Malonyl CoA-acyl carrier … with C91S, V92I, H116Y
# B5: EHD3 (E124V): S. cerevisiae EHD3 with point mutation E124V, malonyl-CoA hydrolase (protein, UniProt P28817 1-500, looked up, variant E124V)
# Small ribosomal subunit …: MLRNTLKCAQLSSKYGFKTTTRTFMTTQPQLNVTDAPPVLFTVQDTARVITLNRPKKLNALNAEMSESMFKTLNEYAKSDTTNLVILKSSNRPRSFCAGGDVATVAIFNFNKEFAKSIKFFTDVYSLNFQIATYLKPIVTFMDGITMGGGVGLSIHTPFRIATENTKWAMPEMDIGFFPDVGSTFALPRIVTLANSNSQMALYLCLTGEVVTGADAYMLGLASHYVSSENLDALQKRLGEISPPFNNDPQSAYFFGMVNESIDEFVSPLPKDYVFKYSNEKLNVIEACFNLSKNGTIEDIMNNLRQYEGSAEGKAFAQEIKTKLLTKSPSSLQIALRLVQENSRDHIESAIKRDLYTAANMCMNQDSLVEFSEATKHKLIDKQRVPYPWTKKEQLFVSQLTSITSPKPSLPMSLLRNTSNVTWTQYPYHSKYQLPTEQEIAAYIEKRTNDDTGAKVTEREVLNHFANVIPSRRGKLGIQSLCKIVCERKCEEVNDGLRWK
# B6: EHD3 (E124A/E308V): S. cerevisiae EHD3 with mutations E124A and E308V, malonyl-CoA hydrolase (protein, UniProt P28817 1-500, looked up, variant E124A E308V)
# Small ribosomal subunit …: B5 Small ribosomal subunit … with V124A, E308V
# B7: EHD3 (E124A): S. cerevisiae EHD3 with point mutation E124A, malonyl-CoA hydrolase (protein, UniProt P28817 1-500, looked up, variant E124A)
# Small ribosomal subunit …: B5 Small ribosomal subunit … with V124A
# Tests used:
# [1] = tested on: MdcY-PMdcL based biosensor; assay: MdcY malonate transcription factor biosensor using exogenously added malonate; assay type: cell-based, E. coli
# Description: S14 employs the malonate responsive transcription factor, MdcY (SEQ ID NO:3), and the MdcY-responsive promoter, PMdcL (SEQ ID NO:6) derived from Acinetobacter calcoaceticus. This biosensor of this disclosure was constructed using an E. coli vector backbone with ampicillin resistance marker and ColE1 origin of replication; the tetA tetracycline resistance gene was placed under control of the PMdcL promoter.
# Nucleic acids encoding for MdcY and TetA gene products, PMdcL promoter, and the E. coli vector backbone were synthetically produced; the biosensor vectors were than constructed by PCR amplification of the nucleic acids and subsequent cloning into the E. coli vector backbone. The plasmids were transformed into chemically competent E. coli DH10b and the resulting clones plated on LB agar plates containing 50 μg/ml carbenicillin (Cb^50). Individual colonies were grown overnight in 3 ml LB medium supplemented with antibiotic and the sequences of the purified plasmid were verified.
# E. coli strain K12 was co-transformed with plasmids S14 and individual colonies isolated from LB agar plates (Cb^50). Colonies were grown in 25 ml LB broth (Cb^50) until reaching an optical density at 600 nm (OD600) of approximately 0.50, at which point in time cell stocks were prepared and stored at −80° C.; cell stocks were 0.5 ml cell culture and 0.5 ml of a 50% v/v glycerol solution.
# An aliquot of biosensor cell stock was thawed and used to inoculate 50 ml of LB medium (Cb^50) in a 250 ml, baffled Erlenmeyer flask. Cultures were incubated for 2 hours at 37° C.; subsequently, 0.6 ml biosensor culture was added to 48-well plates prepared with 2.3 ml LB medium)(Cb^50) supplemented with tetracycline and malonate acid at the desired concentration (n=4). Plates were than grown at 30° C. on an orbital titer plate shaker. Following 12 hours incubation, 200 μl samples were taken for OD600 measurement.
# [2] = Malonic acid solubility in water; assay type: physicochemical
# E. coli strain K12 = assay: In vivo production of malonate in E. coli using S. cerevisiae EHD3 malonyl-CoA hydrolases; assay type: cell-based; conditions: for Malonate Concentration: E. coli K12, M9 minimal medium, 30° C., 48 hours, mean±std dev, n=3; for malonate production relative to wild-type EHD3: E. coli K12, 48 hours
# Experimental: This example describes the host cells and culture conditions resulting in the in vivo production of malonate using a heterologous EHD3 malonyl-CoA hydrolase in an E. coli host cell. E. coli strain K12 was transformed with vectors containing wild-type EHD3, EHD3 (E124A), […], EHD3 (E124S), EHD3 (E124A, E308V) or an empty vector negative control. Transformants were streaked on LB agar plates (Cm^50, 2% glucose). Following overnight growth at 37° C., individual colonies were inoculated into 3 ml LB (Cm^50, 2% glucose) in a 48-well plate. Cultures were incubated on a plate shaker at 37° C. for 6 hours, at which point each culture was inoculated 1% v/v into M9 minimal medium supplemented with Cm^50 and a mixed carbon source (0.5% glycerol, 0.05% glucose, 0.2% lactose) in a 48-well plate. Cultures were incubated on a plate shaker at 30° C., and a 500 μL sample of the fermentation broth was removed for analysis after 48 hours incubation.
# Samples were centrifuged (×6000 g, 1 min) and the supernatant analyzed for malonate quantification. Chemical standards were prepared in […] of water. The separation of malonate was conducted on a Shimadzu Prominence XR UPLC connected to a refractive index detector and UV detector monitoring 210 nm. Product separation was performed on a Bio-Rad Fermentation Monitoring column. The UPLC was programmed to run isocratically using 5 mM H2504 as the eluant with a flow rate of 600 μL per minute. 10 μL were injected per sample, and the sample plate temperature was held at 4° C. Malonate standards began eluting at […]. […] Malonate concentrations (mg/1) were calculated by comparison to a standard curve prepared from authentic malonate.
# S. cerevisiae = assay: Production of malonate in yeast expressing engineered FabD malonyl CoA:ACP transacylase; assay type: cell-based
# Description: In this example, FabD from E. coli, a malonyl CoA:ACP transacylase (EC 2.3.1.39) having one or more of the following amino acid changes at the indicated positions: C92, H201, N201, D117, E117, N117, Y117, G117, H117, Q11, D11, Ell, N11, Y11, G11, H11, A93, V93, I93, F93, S93, G93 was employed as a malonyl-CoA hydrolase. The nucleic acid encoding E. coli FabD was PCR amplified from E. coli strain K12 using primer F1 (5′-[…]-3′) (SEQ ID NO: 43) and F2 (5′-[…]-3′) (SEQ ID NO: 44). The amplified gene was then mutated using standard methods and inserted into a shuttle expression plasmid under the control of the TEF1 promoter and upstream of the CYC1 terminator. This vector contains an ampicillin resistance cassette, a PMB1 origin of replication, a CEN/ARS origin of replication, and a URA3 selection marker. The individual mutational combinations assayed are listed with the results below.
# Individual colonies were inoculated into 1 ml of yeast fermentation media comprising 5 g/L ammonium sulfate, 1 g/L monopotassium phosphate, 0.5 g/L magnesium sulfate, 0.1 g/L sodium chloride, 0.1 g/L calcium chloride, 2 mg/L inositol, 0.5 mg/L boric acid, 0.4 mg/L calcium pentothenate, 0.4 mg/L niacin, 0.4 mg/L pyridoxine hydrochloride, 0.4 mg/L thiamine HCl, 0.4 mg/L zinc sulfate, 0.4 mg/L manganese sulfate, 0.2 mg/L p-aminobenzoic acid, 0.2 mg/L riboflavin, 0.2 mg/L sodium molybdate, 0.2 mg/L ferric chloride, 0.1 mg/L potassium iodide, 40 μg/L copper sulfate, 2 μg/L folic acid, 2 μg/L biotin, 10 mg/L adenine, 50 mg/L L-arginine HCl, 80 mg/L L-aspartic acid, 20 mg/L L-histidine HCl, 50 mg/L L-isoleucine, 100 mg/L L-leucine, 50 mg/L L-lysine HCl, 20 mg/L methionine, 50 mg/L L-phenylalanine, 100 mg/L L-threonine, 50 mg/L L-tryptophan, 50 mg/L L-tyrosine, and 140 mg/L L-valine (the base media) containing 2% glucose as a carbon source. The cultures were incubated on a shaker at 30° C. for 24 h, and 20 μl of these cultures were used to inoculate production cultures of 2 ml of the same media. The production cultures were covered with a breathable membrane, incubated with shaking at 30° C. and sampled for HPLC analysis of product accumulation after 96 h and 168 h of growth.
# [3] = plasmid S14, tetracycline, 12 hours, 30° C.
molecule,measurement,setting,value
"O=C(O)CC(=O)O [malonic acid, propanedioic acid]",biosensor response,[1]; cultures harboring S14,dose-dependent response
same,dynamic range (maximum difference in OD600 between fully induced samples and samples absent malonate),[1]; [3],1.2 OD600 units
same,exogenously added malonate concentration over which an increase in OD600 was observed,[1]; [3],0.5 to 1 mM
same,Malonic acid solubility in water,[2]; 5 ° C.,53.92 % (w/w)
same,Malonic acid solubility in water,[2]; 10 ° C.,55.75 % (w/w)
same,Malonic acid solubility in water,[2]; 15 ° C.,57.63 % (w/w)
same,Malonic acid solubility in water,[2]; 20 ° C.,59.68 % (w/w)
same,Malonic acid solubility in water,[2]; 25 ° C.,61.69 % (w/w)
same,Malonic acid solubility in water,[2]; 30 ° C.,63.5 % (w/w)
same,Malonic acid solubility in water,[2]; 35 ° C.,65.28 % (w/w)
same,Malonic acid solubility in water,[2]; 40 ° C.,67.43 % (w/w)
same,Malonic acid solubility in water,[2]; 45 ° C.,68.85 % (w/w)
same,Malonic acid solubility in water,[2]; 50 ° C.,70.33 % (w/w)
same,Malonic acid solubility in water,[2]; 55 ° C.,72.38 % (w/w)
same,Malonic acid solubility in water,[2]; 60 ° C.,74.29 % (w/w)
same,Malonic acid solubility in water,[2]; 65° C.,75.96 % (w/w)
same,solubility limit,[2]; 65° C.,76 % wt/wt
"Wild-type EHD3: wild type S. cerevisiae EHD3 acyl-CoA hydrolase, SEQ ID NO:1",Malonate Concentration,E. coli strain K12,6.0 ± 0.2 mg/L
B1,Malonate accumulation,S. cerevisiae; 96 h of fermentation,1.01 mM
same,Malonate accumulation,S. cerevisiae; 168 h of fermentation,2.49 mM
B2,Malonate accumulation,S. cerevisiae; 96 h of fermentation,1.11 mM
same,Malonate accumulation,S. cerevisiae; 168 h of fermentation,2.89 mM
B3,Malonate accumulation,S. cerevisiae; 96 h of fermentation,1.64 mM
same,Malonate accumulation,S. cerevisiae; 168 h of fermentation,3.47 mM
B4,Malonate accumulation,S. cerevisiae; 96 h of fermentation,1.47 mM
same,Malonate accumulation,S. cerevisiae; 168 h of fermentation,2.48 mM
B5,malonate production relative to wild-type EHD3,E. coli strain K12,decreased production of malonate
same,Malonate Concentration,E. coli strain K12,0.28 ± 0.03 mg/L
B6,Malonate Concentration,E. coli strain K12,8.35 ± 2.5 mg/L
B7,malonate production relative to wild-type EHD3,E. coli strain K12,only a minor increase
same,Malonate Concentration,E. coli strain K12,7.6 ± 0.7 mg/L
